# Measured values taken from US20040171086A1, “Selective modulation of TLR-mediated biological activity” (3M Innovative Properties Company, priority 2003, published 2004).
# Key:
# TLR7 = biological target: T1, TLR7 (Homo sapiens, UniProt Q9NYK1); assay: IFN-α1-luciferase reporter assay in genetically modified Namalwa cells, TLR7; assay type: cell-based; set-up: expressed in transfected cells; host or cells: Namalwa (ATCC CRL-1432); details: 10 μM IRM, 18 hours
# T1 sequence (Q9NYK1 27-1049): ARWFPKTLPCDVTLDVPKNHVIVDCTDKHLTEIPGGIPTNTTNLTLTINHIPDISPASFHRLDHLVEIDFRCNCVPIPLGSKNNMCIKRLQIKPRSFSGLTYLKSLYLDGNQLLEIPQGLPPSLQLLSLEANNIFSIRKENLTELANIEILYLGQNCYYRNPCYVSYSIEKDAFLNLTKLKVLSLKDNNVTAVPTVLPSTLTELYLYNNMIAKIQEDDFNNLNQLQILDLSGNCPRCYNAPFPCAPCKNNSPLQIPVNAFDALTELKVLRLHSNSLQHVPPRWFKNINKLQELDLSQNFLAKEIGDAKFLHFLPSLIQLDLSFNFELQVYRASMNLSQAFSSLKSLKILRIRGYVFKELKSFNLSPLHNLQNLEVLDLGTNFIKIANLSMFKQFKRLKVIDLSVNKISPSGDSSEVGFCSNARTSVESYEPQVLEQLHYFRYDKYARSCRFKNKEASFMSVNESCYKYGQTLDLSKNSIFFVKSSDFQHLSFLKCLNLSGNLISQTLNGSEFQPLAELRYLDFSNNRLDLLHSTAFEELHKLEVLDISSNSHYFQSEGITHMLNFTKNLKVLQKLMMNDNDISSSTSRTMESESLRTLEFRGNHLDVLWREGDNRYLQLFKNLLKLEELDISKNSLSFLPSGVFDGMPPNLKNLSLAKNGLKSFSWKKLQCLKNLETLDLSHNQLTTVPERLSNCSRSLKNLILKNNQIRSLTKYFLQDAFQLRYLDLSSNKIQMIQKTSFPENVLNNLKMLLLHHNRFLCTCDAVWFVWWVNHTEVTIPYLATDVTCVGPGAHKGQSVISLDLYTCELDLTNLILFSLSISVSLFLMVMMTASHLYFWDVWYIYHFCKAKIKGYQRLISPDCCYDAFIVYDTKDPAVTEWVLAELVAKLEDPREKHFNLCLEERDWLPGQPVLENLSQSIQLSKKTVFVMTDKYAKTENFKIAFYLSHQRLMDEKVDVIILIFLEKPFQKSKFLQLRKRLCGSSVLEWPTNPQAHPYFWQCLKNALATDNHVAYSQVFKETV
# Description: (§1) Results are shown in Table 6 and are expressed as fold induction of IFN-α1 —induced luciferase signal, again with respect to a vehicle control.
# (§2) The assay identified TLR6-selective compounds (i.e., compounds that modulate TLR6-mediated activity, but not TLR7-mediated activity), TLR7-selective compounds (compounds that modulate TLR7-mediated activity, but not TLR6-mediated activity), and compounds that modulate cellular activity through both TLR6 and TLR7.
# (§3) Unless otherwise indicated, all incubations were performed at 37° C. with 5% CO2 at 98% humidity.
# (§4) Culture medium was prepared from complete RPMI 1640 medium (BioSource International, Inc., Camarillo, Calif.). Fetal bovine serum (Atlas Biologicals, Inc., Ft. Collins, Colo.) was added to a final concentration of 7.5% (vol/vol); L-glutamine (BioSource International, Inc.) was added to 5 mM; and sodium pyruvate (BioSource International, Inc.) was added to 1 mM.
# Namalwa cells were grown by incubation in culture medium overnight. Cells were harvested by centrifugation in a tabletop centrifuge (1200 RPM for 5 minutes), and then resuspended in phosphate buffered sucrose to a concentration of 1.3×10^7 cells/mL. […]
# (§5) The electroporated cells were suspended in 10 mLs of culture medium and incubated overnight. Dead cells and debris were removed after 24 hours using a MACS Dead Cell Removal kit (Miltenyi Biotec, Auburn, Calif.). Cells were resuspended in 10 mL of culture medium and incubated for an additional 24 hours.
# (§6) Transfected cells were selected by adding G418 (Promega Corp., Madison, Wis.) to a final concentration of 1 mg/mL and incubating the cells for seven days.
# (§7) The selected transfected cells were counted and resuspended to a concentration of 1×10^6 cell per mL in culture medium. 100 μl aliquots of cells were placed in the wells of a white-walled, white-bottomed 96-well plate (Corning, Inc., Corning, N.Y.). 1.0 μL of an IRM compound from Table 1 (prepared at 1 mM in 100% DMSO) was added to some cell aliquots so that the final concentration of IRM compound was 10 μM. As a positive control, some cell aliquots were incubated with Sendai virus instead of IRM compound. As a negative control, some cell aliquots were incubated with DMSO without IRM compound. In all cases, the cells were incubated for 18 hours.
# (§8) The plates were equilibrated to room temperature before one volume of reconstituted LucLight Plus (Packard Instruments, Meriden, Conn.) was added to each aliquot of cells. Each well of the plate was read on an LJL Analyst (LJL Biosystems, Inc., Sunnyvale, Calif.) set with a 5 minute dark adapt. Results are shown in Table 6 and are expressed as fold increase of the IFN-αl—induced luciferase signal compared to a DMSO control.
# TLR6 = biological target: T2, TLR6 (Homo sapiens, UniProt Q9Y2C9); assay: IFN-α1-luciferase reporter assay in genetically modified Namalwa cells, TLR6; assay type: cell-based; details: 10 μM IRM, 18 hours
# T2 construct: expressed in transfected cells; host or cells: Namalwa (ATCC CRL-1432), pCI-TLR6 vector, G418 selected
# T2 sequence (Q9Y2C9 32-796): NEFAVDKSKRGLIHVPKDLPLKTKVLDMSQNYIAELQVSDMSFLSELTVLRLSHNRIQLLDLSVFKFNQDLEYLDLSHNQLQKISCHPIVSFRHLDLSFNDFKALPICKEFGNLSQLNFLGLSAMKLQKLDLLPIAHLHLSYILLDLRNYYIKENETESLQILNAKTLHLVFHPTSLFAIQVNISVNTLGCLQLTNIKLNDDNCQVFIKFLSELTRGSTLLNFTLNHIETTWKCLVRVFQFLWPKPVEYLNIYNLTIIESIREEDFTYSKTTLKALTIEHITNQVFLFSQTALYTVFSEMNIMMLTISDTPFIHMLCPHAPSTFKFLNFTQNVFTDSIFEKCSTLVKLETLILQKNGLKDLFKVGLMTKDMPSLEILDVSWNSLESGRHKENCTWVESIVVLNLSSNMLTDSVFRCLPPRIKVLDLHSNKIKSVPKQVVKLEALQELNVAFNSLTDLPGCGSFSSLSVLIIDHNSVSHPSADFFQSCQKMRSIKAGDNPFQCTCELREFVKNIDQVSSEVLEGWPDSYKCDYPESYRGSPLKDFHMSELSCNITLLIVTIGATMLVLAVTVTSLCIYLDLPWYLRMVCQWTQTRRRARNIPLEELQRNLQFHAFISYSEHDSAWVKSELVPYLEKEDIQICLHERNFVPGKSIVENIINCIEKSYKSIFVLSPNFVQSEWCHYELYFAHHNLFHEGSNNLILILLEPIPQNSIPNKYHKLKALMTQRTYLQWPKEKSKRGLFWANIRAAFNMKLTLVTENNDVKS
# Description: as §1, §2, §3, §4
# Namalwa cells were grown by incubation in culture medium overnight. Cells were harvested by centrifugation in a tabletop centrifuge (1200 RPM for 5 minutes), and then resuspended in phosphate buffered sucrose to a concentration of 1.3×10^7 cells/mL.
# For each transfection, a 750 μL aliquot of the cell suspension was placed in an electroporation cuvette with 4 mm gaps. 10 μg of the pIFN-α1-luc vector and 10 μg of the pCI-TLR6 vector were added to the electroporation cuvette. The cell and vector mixtures were incubated at room temperature for 5 minutes. The cells were electroporated using a BioRad Gene Pulser (BioRad Laboratories, Hercules, Calif.) set to at 500 μF capacitance and […], then incubated at room temperature for 5 minutes.
# as §5, §6, §7, §8
Structure (SMILES),TLR7: fold increase of the IFN-α1-induced luciferase signal compared to a DMSO control (TLR7) [fold increase],TLR6: fold increase of the IFN-α1-induced luciferase signal compared to a DMSO control (TLR6) [fold increase]
"CCCCc1nc2c(N)nc3ccc(OCC(=O)N4CCOCC4)cc3c2n1C [IRM44, 2-[(4-amino-2-butyl-1-methyl-1H-imidazo[4,5-c]quinolin-8-yl)oxy]-1-morpholin-1-ylethanone]",1.60,6.10
"CCC(COCCCc1ccccc1)n1cnc2c(N)nc3ccccc3c21 (stereo not shown) [IRM45, 1-{1-[(3-phenylpropoxy)methyl]propyl}-1H-imidazo[4,5-c]quinolin-4-amine]",1.87,5.56
"Nc1nc2ccccc2c2c1ncn2CCCC(=O)c1ccccc1 [IRM46, 4-(4-amino-1H-imidazo[4,5-c]quinolin-1-yl)-1-phenylbutan-1-one]",1.83,3.75
"Cc1nc2c(N)nc3ccccc3c2n1CCOCC#Cc1ccccc1 [IRM47, 2-methyl-1-{2-[(3-phenylprop-2-ynyl)oxy]ethyl}-1H-imidazo[4,5-c]quinolin-4-amine]",1.91,9.42
"CCc1nc2c(N)nc3ccc(OCc4ccccc4)cc3c2n1CCCCNC(=O)c1ccccc1 [IRM48, N-{4-[4-amino-8-(benzyloxy)-2-ethyl-1H-imidazo[4,5-c]quinolin-1-yl]butyl}benzamide]",1.62,4.56
"COCCc1nc2c(N)nc3ccccc3c2n1CCOCCNC(=O)N1CCOCC1 [IRM49, N-(2-{2-[4-amino-2-(2-methoxyethyl)-1H-imidazo[4,5-c]quinolin-1-yl]ethoxy}ethyl)morpholine-4-carboxamide]",1.95,10.92
CCc1nc2c(N)nc3ccccc3c2n1CCCCSC(C)C [IRM50],1.91,8.80
"COCCc1nc2c(N)nc3ccccc3c2n1CCOCCNC(=O)c1ccc(C(=O)NCCOCCn2c(CCOC)nc3c(N)nc4ccccc4c32)cc1 [IRM51, N,N′-bis(2-{2-[4-amino-2-(2-methoxyethyl)-1H-imidazo[4,5-c]quinolin-1-yl]ethoxy}ethyl)terephthalamide]",1.74,3.67
